Structures can show the parent of a compound that is named as a salt.
Assays:
[1] = target: sphingosine kinase 1 (SK1) (Homo sapiens, UniProt Q9NYA1); assay: fluorescent NBD-sphingosine kinase assay with recombinant human SK1; format: biochemical
[2] = target: T1, sphingosine kinase 2 (SK2) (Homo sapiens, UniProt Q9NRA0); assay: fluorescent NBD-sphingosine kinase assay with recombinant human SK2; format: biochemical
T1 sequence (Q9NRA0 1-654): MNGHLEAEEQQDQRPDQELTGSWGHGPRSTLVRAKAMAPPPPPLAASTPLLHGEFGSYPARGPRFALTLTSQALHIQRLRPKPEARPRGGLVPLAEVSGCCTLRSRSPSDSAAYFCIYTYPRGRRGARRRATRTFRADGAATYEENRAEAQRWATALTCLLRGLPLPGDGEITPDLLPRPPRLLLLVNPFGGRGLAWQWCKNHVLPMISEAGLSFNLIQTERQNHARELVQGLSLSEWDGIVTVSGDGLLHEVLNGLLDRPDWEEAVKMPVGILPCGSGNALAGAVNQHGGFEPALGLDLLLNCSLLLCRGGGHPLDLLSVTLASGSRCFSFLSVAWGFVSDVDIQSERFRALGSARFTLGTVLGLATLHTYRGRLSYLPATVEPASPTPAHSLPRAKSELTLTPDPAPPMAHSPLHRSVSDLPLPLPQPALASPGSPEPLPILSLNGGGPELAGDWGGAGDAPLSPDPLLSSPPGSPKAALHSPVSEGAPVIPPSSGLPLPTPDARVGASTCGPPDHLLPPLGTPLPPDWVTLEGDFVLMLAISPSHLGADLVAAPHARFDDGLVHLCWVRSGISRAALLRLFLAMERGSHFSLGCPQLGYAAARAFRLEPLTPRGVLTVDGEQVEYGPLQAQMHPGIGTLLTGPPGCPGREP

Chain of sphingosine kinase 1 (SK1) (Q9NYA1 whole entry): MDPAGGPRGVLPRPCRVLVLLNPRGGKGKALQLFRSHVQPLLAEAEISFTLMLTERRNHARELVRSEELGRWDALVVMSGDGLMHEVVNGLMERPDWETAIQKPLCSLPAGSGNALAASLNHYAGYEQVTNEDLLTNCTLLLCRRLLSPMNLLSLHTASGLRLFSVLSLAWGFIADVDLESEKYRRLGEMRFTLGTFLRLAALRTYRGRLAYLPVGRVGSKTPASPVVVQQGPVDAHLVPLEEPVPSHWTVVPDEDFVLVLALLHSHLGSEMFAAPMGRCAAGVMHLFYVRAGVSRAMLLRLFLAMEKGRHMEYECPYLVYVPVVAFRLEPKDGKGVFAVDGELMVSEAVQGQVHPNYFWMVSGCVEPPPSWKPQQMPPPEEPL

Q: How did the IC50 [1] turn out when `CCCCCCCCCCCCC/C=C/[C@H](O)[C@@H](CO)NC(=N)N` [LCL351, L-erythro-2-N-(1′-carboxamidino)-sphingosine hydrochloride] was run?
A: ~5.5 µM

Q: And the IC50 [2]?
A: ~57 µM

— PMC5509055 (Prostaglandins & other lipid mediators, 2017)
